In article PMC9022596, “Convergent Evolution of Antibiotic Tolerance in Patients with Persistent Methicillin-Resistant Staphylococcus aureus Bacteremia” (Infection and Immunity, 2022):
Values joined by “and” are separate entries in the source; they are usually repeats but may differ in a detail not shown here. Identical values can stand only once.

Assays:
Assay in all cases: microbe, parasite or virus in culture
Parameters in all cases: species or system Staphylococcus aureus clinical blood isolates and ATCC 29213; Broth microdilution MIC in cation-adjusted Mueller-Hinton broth with 50 ug/mL CaCl2, EUCAST reading, 37 C
[1] = test system: T1, Staphylococcus aureus PB1101; details: PB1101, 16 h, replicate MIC, MHB + 50 ug/mL CaCl2
T1 construct: PB1101
Protocol: (§1) MICs were measured in cation-adjusted Mueller-Hinton broth (MHB) supplemented with 50 μg/mL CaCl2 (MHB-Ca^2+) via broth microdilution in 96-well plates with an inoculum of ∼5 × 10^5 CFU per mL. Antibiotic test concentrations ranged from 0.0625 μg/mL to 32 μg/mL by 2-fold dilutions. Plates were incubated at 37°C for 16 h without shaking, and results were interpreted in accordance with European Committee on Antimicrobial Susceptibility Testing reading guidelines ([72]). S. aureus ATCC 29213 was used as a quality-control strain.

[2] = test system: T2, Staphylococcus aureus PB0411; details: PB0411, 16 h, replicate MIC, MHB + 50 ug/mL CaCl2
T2 construct: PB0411
Protocol: as §1

[3] = test system: T3, Staphylococcus aureus PB0610; details: PB0610, 16 h, replicate MIC, MHB + 50 ug/mL CaCl2
T3 construct: PB0610
Protocol: as §1

[4] = test system: T4, Staphylococcus aureus PB1802; details: PB1802, 16 h, replicate MIC, MHB + 50 ug/mL CaCl2
T4 construct: PB1802
Protocol: as §1

[5] = test system: T5, Staphylococcus aureus PB0102; details: PB0102, 16 h, replicate MIC, MHB + 50 ug/mL CaCl2
T5 construct: PB0102
Protocol: as §1

[6] = test system: T6, Staphylococcus aureus PB1511; details: PB1511, 16 h, replicate MIC, MHB + 50 ug/mL CaCl2
T6 construct: PB1511
Protocol: as §1

[7] = test system: T7, Staphylococcus aureus PB1512; details: PB1512, 16 h, replicate MIC, MHB + 50 ug/mL CaCl2
T7 construct: PB1512
Protocol: as §1

[8] = test system: T8, Staphylococcus aureus PB0101; details: PB0101, 16 h, replicate MIC, MHB + 50 ug/mL CaCl2
T8 construct: PB0101
Protocol: as §1

[9] = test system: T9, Staphylococcus aureus PB0906; details: PB0906, 16 h, replicate MIC, MHB + 50 ug/mL CaCl2
T9 construct: PB0906
Protocol: as §1

[10] = test system: T10, Staphylococcus aureus PB0804; details: PB0804, 16 h, replicate MIC, MHB + 50 ug/mL CaCl2
T10 construct: PB0804
Protocol: as §1

[11] = test system: T11, Staphylococcus aureus PB0911; details: PB0911, 16 h, replicate MIC, MHB + 50 ug/mL CaCl2
T11 construct: PB0911
Protocol: as §1

[12] = test system: T12, Staphylococcus aureus PB0702; details: PB0702, 16 h, replicate MIC, MHB + 50 ug/mL CaCl2
T12 construct: PB0702
Protocol: as §1

[13] = test system: T13, Staphylococcus aureus PB1406; details: PB1406, 16 h, replicate MIC, MHB + 50 ug/mL CaCl2
T13 construct: PB1406
Protocol: as §1

[14] = test system: T14, Staphylococcus aureus PB1405; details: PB1405, 16 h, replicate MIC, MHB + 50 ug/mL CaCl2
T14 construct: PB1405
Protocol: as §1

[15] = test system: T15, Staphylococcus aureus PB0409; details: PB0409, 16 h, replicate MIC, MHB + 50 ug/mL CaCl2
T15 construct: PB0409
Protocol: as §1

CCO/N=C(\C(=O)N[C@@H]1C(=O)N2C(C(=O)[O-])=C(Sc3nc(-c4cc[n+](C)cc4)cs3)CS[C@H]12)c1nsc(N)n1 [Ceftaroline]
MIC [1]: 0.5 µg/mL
MIC [2]: 0.5 µg/mL
MIC [3]: 0.25 µg/mL
MIC [4]: 0.5 µg/mL
MIC [5]: 0.5 µg/mL
MIC [6]: 0.5 µg/mL
MIC [7]: 0.5 µg/mL
MIC [8]: 0.5 µg/mL
MIC [9]: 0.5 µg/mL
MIC [10]: 0.5 µg/mL
MIC [11]: 0.5 µg/mL
MIC [12]: 0.5 µg/mL
MIC [13]: 0.25 µg/mL
MIC [14]: 0.25 µg/mL
MIC [15]: 0.5 µg/mL

CCCCCCCCCC(=O)N[C@@H](Cc1c[nH]c2ccccc12)C(=O)N[C@H](CC(N)=O)C(=O)N[C@@H](CC(=O)O)C(=O)N[C@@H]1C(=O)NCC(=O)N[C@@H](CCCN)C(=O)N[C@@H](CC(=O)O)C(=O)N[C@H](C)C(=O)N[C@@H](CC(=O)O)C(=O)NCC(=O)N[C@H](CO)C(=O)N[C@@H]([C@H](C)CC(=O)O)C(=O)N[C@@H](CC(=O)c2ccccc2N)C(=O)O[C@@H]1C [Daptomycin]
MIC [1]: 2 µg/mL
MIC [2]: 1 µg/mL
MIC [3]: 1 µg/mL
MIC [4]: 2 µg/mL
MIC [5]: 2 µg/mL
MIC [6]: 2 µg/mL
MIC [7]: 1 µg/mL
MIC [8]: 1 µg/mL
MIC [9]: 2 µg/mL
MIC [10]: 1 µg/mL
MIC [11]: 2 µg/mL and 1 µg/mL
MIC [12]: 2 µg/mL
MIC [13]: 1 µg/mL
MIC [14]: 2 µg/mL and 1 µg/mL
MIC [15]: 1 µg/mL

CC(=O)NC[C@H]1CN(c2ccc(N3CCOCC3)c(F)c2)C(=O)O1 [Linezolid]
MIC [1]: 4 µg/mL
MIC [2]: 4 µg/mL
MIC [3]: 4 µg/mL
MIC [4]: 4 µg/mL
MIC [5]: 4 µg/mL
MIC [6]: 4 µg/mL
MIC [7]: 4 µg/mL
MIC [8]: 4 µg/mL
MIC [9]: 4 µg/mL
MIC [10]: 2 µg/mL
MIC [11]: 4 µg/mL
MIC [12]: 4 µg/mL
MIC [13]: 4 µg/mL
MIC [14]: 4 µg/mL
MIC [15]: 4 µg/mL

CN[C@H](CC(C)C)C(=O)N[C@H]1C(=O)N[C@@H](CC(N)=O)C(=O)N[C@H]2C(=O)N[C@H]3C(=O)N[C@H](C(=O)N[C@H](C(=O)O)c4cc(O)cc(O)c4-c4cc3ccc4O)[C@H](O)c3ccc(c(Cl)c3)Oc3cc2cc(c3O[C@@H]2O[C@H](CO)[C@@H](O)[C@H](O)[C@H]2O[C@H]2C[C@](C)(N)[C@H](O)[C@H](C)O2)Oc2ccc(cc2Cl)[C@H]1O [Vancomycin]
MIC [1]: 2 µg/mL
MIC [2]: 2 µg/mL
MIC [3]: 2 µg/mL and 4 µg/mL
MIC [4]: 2 µg/mL
MIC [5]: 2 µg/mL
MIC [6]: 2 µg/mL
MIC [7]: 2 µg/mL
MIC [8]: 2 µg/mL
MIC [9]: 2 µg/mL
MIC [10]: 2 µg/mL
MIC [11]: 2 µg/mL
MIC [12]: 2 µg/mL
MIC [13]: 2 µg/mL
MIC [14]: 2 µg/mL
MIC [15]: 2 µg/mL
